As a reminder, the IC50 is the point on the concentration scale where inhibition reaches its midpoint. A low value points to higher potency. By inhibition is commonly meant the drop in the measured response relative to a control, in per cent. Lower therefore signals a weak effect.

Structures are written as SMILES. Structures can show the parent of a compound that is named as a salt. Where only a bound is given, the exact number is not on record here.

The target in one experiment is T1, Human PDE7B (hPDE7B) (Homo sapiens, UniProt Q9NP56).
T1 construct: made in house; host or cells: COS-7 cells
T1 sequence (Q9NP56 whole entry): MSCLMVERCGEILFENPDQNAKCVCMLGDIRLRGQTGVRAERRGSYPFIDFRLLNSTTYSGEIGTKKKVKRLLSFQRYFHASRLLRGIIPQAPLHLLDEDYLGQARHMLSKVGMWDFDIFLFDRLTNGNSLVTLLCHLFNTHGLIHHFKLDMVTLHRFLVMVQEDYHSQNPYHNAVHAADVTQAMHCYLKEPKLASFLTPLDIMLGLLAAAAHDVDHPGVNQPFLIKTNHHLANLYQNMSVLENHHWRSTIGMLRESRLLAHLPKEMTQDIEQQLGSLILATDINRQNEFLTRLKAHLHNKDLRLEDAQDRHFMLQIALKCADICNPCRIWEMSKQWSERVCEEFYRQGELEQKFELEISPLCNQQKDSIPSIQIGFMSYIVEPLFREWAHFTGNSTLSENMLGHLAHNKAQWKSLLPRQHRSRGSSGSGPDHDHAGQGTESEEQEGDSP
Briefly: Measurement of PDE7 inhibitory activity (Experimental Example 1; residual cAMP, LANCE Ultra cAMP TR-FRET). In kind it is biochemical. Particulars: cAMP 3 nmol/L, room temperature 60 minutes. As to the method: Human PDE7B (hPDE7B) was isolated from COS-7 cells transfected with plasmids encoding hPDE7B according to the method described in a reference, Biochemical and Biophysical Research Communication, 271, p. 575-583 (2000). The resulting enzyme solution was used in the PDE assay.
PDE7 inhibitory assay was carried out by reacting the mixture of a compound, hPDE7B, and cAMP, and measuring the residual cAMP by a detection method using LANCE (registered trademark) Ultra cAMP Detection Kit (ParkinElmer). The compound was dissolved in DMSO, and diluted so that the concentration would become 50 times of the final concentration. The hPDE7B and cAMP were diluted with an assay buffer (50 mmol/L Tris-HCl, 1 mmol/L MgCl2, 0.1% BSA, 0.5 mmol/L DTT, pH7.5) so that the hPDE7B would have an appropriate enzyme activity and the concentration of cAMP would become 6 nmol/L. To a 96 well plate were added the compound (2 μL) (DMSO final concentration: 2%), hPDE7B (48 μL), and cAMP (50 μL) (concentration at the reaction: 3 nmol/L), and the resulting mixture was reacted at room temperature for 60 minutes. The reaction solution (20 μL) was subjected to a TR-FRET method according to the protocol specified by the kit to measure the concentration of the residual cAMP. In the assay, to a tracer solution specified by the kit was added 0.5 mmol/L of 3-isobutyl-1-methylxanthine (IBMX, nonselective PDE inhibitor) in order to stop the PDE enzyme reaction after the completion of reaction until the measurement.
The reaction without a compound was defined as “0% inhibition”, the reaction without hPDE7B was defined as “100% inhibition”, and the inhibition rate of the compound was calculated by the following equation.
Inhibition rate of compound (%)={(Residual cAMP concentration at the addition of compound−Residual cAMP concentration in 0% inhibition)/(Residual cAMP concentration in 100% inhibition−Residual cAMP concentration in 0% inhibition)}×100
Turning to `Nc1ncnc2c1nnn2C1CCCC(C(F)(F)F)C1` (single isomer, unassigned) [Example 203, 3-[cis-3-(trifluoromethyl)cyclohexyl]-3H-[1,2,3]triazolo[4,5-d]pyrimidin-7-amine], the IC50 is > 1000 nM.

`Nc1ncnc2c1nnn2C1CCCCC1F` (racemic) [Example 97, 3-(cis-2-fluorocyclohexyl)-3H-[1,2,3]triazolo[4,5-d]pyrimidin-7-amine] showed an IC50 of 50 nM.

`Nc1nccn2c(C3CC(F)(F)C3)nnc12` [Example 84, 3-(3,3-difluorocyclobutyl)-[1,2,4]triazolo[4,3-a]pyrazin-8-amine] displayed an IC50 of 730 nM.

In the case of `CC1CCC(F)(F)CC1c1nnc2c(N)nccn12` (single isomer, unassigned) [Example 176, 3-(cis-5,5-difluoro-2-methylcyclohexyl) [1,2,4]triazolo[4,3-a]pyrazin-8-amine], the IC50 was > 1000 nM.

`CC1CCCN(c2nnc3c(N)nccn23)C1C` (single isomer, unassigned) [Example 56, 3-(2,3-dimethylpiperidin-1-yl) [1,2,4]triazolo[4,3-a]pyrazin-8-amine] showed an IC50 of 190 nM.

On to `CC1CC(c2nnc3c(N)nccn23)C1` (stereo not drawn) [Example 133, 3-(3-methylcyclobutyl)-[1,2,4]triazolo[4,3-a]pyrazin-8-amine], for which the IC50 amounted to 160 nM.

In turn, `CC1CCCCC1n1nnc2c(N)ncnc21` (racemic) [Example 95, 3-(cis-2-methylcyclohexyl)-3H-[1,2,3]triazolo[4,5-d]pyrimidin-7-amine] gave an IC50 of 40 nM.

On to `Nc1ncnc2c1nnn2C1CCCCC1` [Example 85, 3-cyclohexyl-3H-[1,2,3]triazolo[4,5-d]pyrimidin-7-amine hydrochloride], for which half-maximal inhibition (IC50) required 40 nM.

Molecule `Nc1ncnc2c1nnn2-c1cccc(C(F)(F)F)c1` [Example 130] gave an IC50 of 490 nM.

As to `CCC1CCCCN1c1nnc2c(N)nccn12` (single isomer, unassigned) [Example 223, 3-(2-ethylpiperidin-1-yl) [1,2,4]triazolo[4,3-a]pyrazin-8-amine], the IC50 worked out at 190 nM.

Turning to `Nc1nccn2c(C3CCCC(C(F)(F)F)C3)nnc12` (single isomer, unassigned) [Example 211, 3-[cis-3-(trifluoromethyl)cyclohexyl][1,2,4]triazolo[4,3-a]pyrazin-8-amine], the IC50 is > 1000 nM.

On to `COC(=O)N1CCCCC1c1nnc2c(N)nccn12` (racemic) [Example 251, methyl 2-(8-amino-[1,2,4]triazolo[4,3-a]pyrazin-3-yl)-piperidine-1-carboxylate], for which the IC50 worked out at 620 nM.

As for `Nc1ncnc2c1nnn2C1CCCCC1C(F)(F)F` (racemic) [Example 96], half-maximal inhibition (IC50) required 950 nM.

In turn, `CC1CCC(C)N(c2nnc3c(N)ncc(C#N)n23)C1` (single isomer, unassigned) [Example 235, 8-amino-3-(2,5-dimethylpiperidin-1-yl) [1,2,4]triazolo[4,3-a]pyrazine-5-carbonitrile] yielded an IC50 of 16 nM.

`CC1(C)CC(c2nnc3c(N)nccn23)CC(F)(F)C1` (single isomer, unassigned) [Example 178, 3-(3,3-difluoro-5,5-dimethylcyclohexyl) [1,2,4]triazolo[4,3-a]pyrazin-8-amine]: the IC50 was > 1000 nM.

Turning to `Nc1ncnc2c1nnn2[C@H]1CCC[C@H](C(F)(F)F)C1` (relative stereo) [Example 86, 3-[trans-3-(trifluoromethyl)cyclohexyl]-3H-[1,2,3]triazolo[4,5-d]pyrimidin-7-amine], inhibition was half-maximal at 360 nM (IC50).

Take `CC1CCCC(n2nnc3c(N)ncnc32)C1` (racemic) [Example 94, 3-(trans-3-methylcyclohexyl)-3H-[1,2,3]triazolo[4,5-d]pyrimidin-7-amine]: 60 nM corresponded to half-maximal inhibition (IC50).

Regarding `CC1CC(C)CN(c2nnc3c(N)nccn23)C1` (racemic) [Example 53, 3-[trans-3,5-dimethylpiperidin-1-yl][1,2,4]triazolo[4,3-a]pyrazin-8-amine], the IC50 came out at 20 nM.

`Nc1nccn2c(N3CCCC(F)(F)C3)nnc12` [Example 47]: the IC50 was 300 nM.

In turn, `CCCC1CCCCN1c1nnc2c(N)nccn12` (racemic) [Example 79, 3-(2-propylpiperidin-1-yl)-[1,2,4]triazolo[4,3-a]pyrazin-8-amine] yielded an IC50 of 260 nM.

For the molecule `CC1(C)CCCC(c2nnc3c(N)nccn23)C1` (single isomer, unassigned) [Example 206, 3-(3,3-dimethylcyclohexyl) [1,2,4]triazolo[4,3-a]pyrazin-8-amine], the IC50 is > 1000 nM.

In turn, `Nc1nccn2c(N3CCCCC3Cc3ccccc3)nnc12` (stereo not drawn) [Example 40] yielded an IC50 of 730 nM.

The molecule `CC1CCC(C)N(c2nnc3c(N)nccn23)C1` (racemic) [Example 58, 3-(2,5-dimethylpiperidin-1-yl) [1,2,4]triazolo[4,3-a]pyrazin-8-amine] came in with an IC50 of 20 nM.

As to `CC1(C)CCCC(c2nnc3c(N)ncnn23)C1` (racemic) [Example 73, 3-(3,3-dimethylcyclohexyl) [1,2,4]triazolo[3,4-f][1,2,4]triazin-8-amine], the IC50 amounted to 1 nM.

The molecule `CC(C)[C@H]1CC[C@H](C)[C@H](n2nnc3c(N)ncnc32)C1` [Example 134, 3-[(1R,2S,5S)-2-methyl-5-(propan-2-yl)cyclohexyl]-3H-[1,2,3]triazolo[4,5-d]pyrimidin-7-amine] registered an IC50 of 330 nM.

In turn, `Nc1nccn2c([C@@H]3[C@H]4C=CC[C@H]43)nnc12` (relative stereo) [Example 163, 3-[(1S*,5R*,6S*)-bicyclo[3.1.0]hex-2-en-6-yl][1,2,4]triazolo[4,3-a]pyrazin-8-amine] had an IC50 of 220 nM.

Consider `CC1CC(c2nnc3c(N)nccn23)CC(F)(F)C1` (racemic) [Example 155, 3-(trans-3,3-difluoro-5-methylcyclohexyl[1,2,4]triazolo[4,3-a]pyrazin-8-amine], for which the IC50 is 90 nM.

Molecule `Nc1ncnc2c1nnn2C1CCCCC1F` (stereo not drawn) [Example 112] registered an IC50 of 170 nM.

With `CC1CCC(C(F)(F)F)CC1c1nnc2c(N)nccn12` (single isomer, unassigned) [Example 173, 3-[2-methyl-5-(trifluoromethyl)cyclohexyl][1,2,4]triazolo[4,3-a]pyrazin-8-amine], the IC50 is > 1000 nM.

Turning to `CC(C)C1CCCCN1c1nnc2c(N)nccn12` (stereo not drawn) [Example 37], the IC50 was 490 nM.

In turn, `Nc1ncnc2c1nnn2-c1c(F)cccc1F` [Example 14] gave an IC50 of 560 nM.

In turn, `CN1CCCCC1c1nnc2c(N)nccn12` (racemic) [Example 249, 3-(1-methylpiperidin-2-yl)-[1,2,4]triazolo[4,3-a]pyrazin-8-amine] returned an IC50 of 740 nM.

For `CC1(C)CCCC(c2nnc3c(N)nccn23)C1` (racemic) [Example 144, 3-(3,3-dimethylcyclohexyl) [1,2,4]triazolo[4,3-a]pyrazin-8-amine], the IC50 was determined as 10 nM.

Consider `CC1CCC(C)N(c2nnc3c(N)nccn23)C1` (racemic) [Example 59, 3-(2,5-dimethylpiperidin-1-yl) [1,2,4]triazolo[4,3-a]pyrazin-8-amine], for which half-maximal inhibition (IC50) required 240 nM.

For `CC1CCCC(c2nnc3c(N)ncnn23)C1` (single isomer, unassigned) [Example 71, 3-(cis-3-methylcyclohexyl) [1,2,4]triazolo[3,4-f][1,2,4]triazin-8-amine], the IC50 is 4 nM.

Consider `Nc1ncnc2c1nnn2C1CCCc2ccccc21` (stereo not drawn) [Example 33], for which half-maximal inhibition (IC50) required 520 nM.

With `CC1CC(n2nnc3c(N)ncnc32)CC(C)(C)C1` (stereo not drawn) [Example 108], the IC50 was 230 nM.

`Nc1ncnc2c1nnn2C1CCCCC1(F)F` (racemic) [Example 113, 3-(2,2-difluorocyclohexyl)-3H-[1,2,3]triazolo[4,5-d]pyrimidin-7-amine] gave an IC50 of 30 nM.

`CO[C@H]1CCCC[C@H]1n1nnc2c(N)ncnc21` (racemic) [Example 111, 3-[cis-2-methoxycyclohexyl]-3H-[1,2,3]triazolo[4,5-d]pyrimidin-7-amine]: the IC50 stood at 320 nM.

Staying with this experiment, now noted: compound at 1 μmol/L.
Molecule `Nc1ncnc2c1nnn2C1CCCC(C(F)(F)F)C1` (single isomer, unassigned) [Example 203, 3-[cis-3-(trifluoromethyl)cyclohexyl]-3H-[1,2,3]triazolo[4,5-d]pyrimidin-7-amine] showed an inhibition at 1 µM of 27%.

For the molecule `CC1CCC(F)(F)CC1c1nnc2c(N)nccn12` (single isomer, unassigned) [Example 176, 3-(cis-5,5-difluoro-2-methylcyclohexyl) [1,2,4]triazolo[4,3-a]pyrazin-8-amine], testing at 1 µM gave an inhibition of 28%.

On to `Nc1nccn2c(C3CCCC(C(F)(F)F)C3)nnc12` (single isomer, unassigned) [Example 211, 3-[cis-3-(trifluoromethyl)cyclohexyl][1,2,4]triazolo[4,3-a]pyrazin-8-amine], for which the inhibition at 1 µM is 20%.

For `CC1(C)CC(c2nnc3c(N)nccn23)CC(F)(F)C1` (single isomer, unassigned) [Example 178, 3-(3,3-difluoro-5,5-dimethylcyclohexyl) [1,2,4]triazolo[4,3-a]pyrazin-8-amine], testing at 1 µM gave an inhibition of 33%.

Turning to `CC1(C)CCCC(c2nnc3c(N)nccn23)C1` (single isomer, unassigned) [Example 206, 3-(3,3-dimethylcyclohexyl) [1,2,4]triazolo[4,3-a]pyrazin-8-amine], the inhibition at 1 µM stood at 44%.

The molecule `CC1CCC(C(F)(F)F)CC1c1nnc2c(N)nccn12` (single isomer, unassigned) [Example 173, 3-[2-methyl-5-(trifluoromethyl)cyclohexyl][1,2,4]triazolo[4,3-a]pyrazin-8-amine] registered an inhibition at 1 µM of 3%.

(Values after patent publication US20190185479A1, “BICYCLIC NITROGENATED HETEROCYCLIC COMPOUND” (MITSUBISHI TANABE PHARMA CORPORATION, priority 2016, published 2019).)
